Experimental data taken from PMC11842588, “A first-in-class selective inhibitor of ERK1/2 and ERK5 overcomes drug resistance with a single-molecule strategy” (Signal Transduction and Targeted Therapy, 2025).

Assays:
[1] = test system: MDA-MB-231 cells with knockdown of ERK1/2/5; assay: MTT assay in ERK1/2/5 siRNA knockdown cells; format: cell-based; settings: Homo sapiens, siRNA co-transfection
Description: (§1) The transient transfection processes were performed according to Lipofectamine 3000 transfection procedure details. The transfected cells were used for subsequent experiments after 48 h or 72 h.
(§2) Cancer cells were seeded in a density in 96-well plates (2 × 10^3 cells per well). After incubation for 24 h, cancer cells were treated with compounds (0–20 μM) for 72 h.

[2] = test system: MDA-MB-468 cells with knockdown of ERK1/2/5; assay: MTT assay in ERK1/2/5 siRNA knockdown cells; format: cell-based; settings: Homo sapiens, siRNA co-transfection
Description: as §1, §2

ERK1/2 and ERK5 = assay: Cellular thermal shift assay (CETSA); format: cell-based; settings: 2 μM, MDA-MB-231 and MDA-MB-468 cells, 37–62 °C
Description: Cells were collected by trypsin and then resuspended in PBS. Following heating at the indicated temperatures (37, 42, 47, 52, 57, and 62 °C) for 3 min, cell suspensions were lysed by three freeze−thaw cycles with liquid nitrogen and thawed at room temperature. The lysates were separated by centrifugation at 17,000 × g for 20 min. The supernatants were collected and prepared for Immunoblotting to detect the stability of ERK1/2 and ERK5.

MEK1/2 and MEK5 = assay: Immunoblotting of upstream MEK activity; format: cell-based; settings: up to 5 μM, 24 h
Description: Then, the cells were washed twice with PBS and stimulated with cell lysis buffer. After 13,000 rpm centrifugation for 20 min, an enhanced bicinchoninic acid (BCA) protein assay kit was (Beyotime Biotechnology, Jiangsu, China) used to quantify the protein level of the supernatural. […] Furthermore, membranes were blocked with 5% skim milk. The membranes were incubated by the corresponding primary antibodies. After being washed twice with TBST solution, the membranes were incubated with horseradish peroxidase (HRP)-conjugated secondary antibodies and visualized by employing ECL ([…]) as the HRP substrate.

Arg(h) = biological target: T1, Arg(h) (Homo sapiens, UniProt P42684); assay: Kinase profiling; format: biochemical
T1 construct: purchased Eurofins Cerep SA (KinaseProfiler)
Description: (§3) 380 kinases inhibitory activities of SKLB-D18 were conducted by Eurofins Cerep SA. The result was illustrated by kinase tree (http://www.kinhub.org/kinmap/).

Aurora-B(h) = biological target: T2, Aurora-B(h) (Homo sapiens, UniProt Q96GD4); assay: Kinase profiling; format: biochemical
T2 construct: purchased Eurofins Cerep SA (KinaseProfiler)
Description: as §3

BrSK2(h) = biological target: T3, BrSK2(h) (Homo sapiens, UniProt Q8IWQ3); assay: Kinase profiling; format: biochemical
T3 construct: purchased Eurofins Cerep SA (KinaseProfiler)
Description: as §3

CaMKIIα(h) = biological target: T4, CaMKIIα(h) (Homo sapiens, UniProt Q9UQM7); assay: Kinase profiling; format: biochemical
T4 construct: purchased Eurofins Cerep SA (KinaseProfiler)
Description: as §3

FAK(h) = biological target: T5, FAK(h) (Homo sapiens, UniProt Q05397); assay: Kinase profiling; format: biochemical
T5 construct: purchased Eurofins Cerep SA (KinaseProfiler)
Description: as §3

FGFR2(h) = biological target: T6, FGFR2(h) (Homo sapiens, UniProt P21802); assay: Kinase profiling; format: biochemical
T6 construct: purchased Eurofins Cerep SA (KinaseProfiler)
Description: as §3

Fyn(h) = biological target: T7, Fyn(h) (Homo sapiens, UniProt P06241); assay: Kinase profiling; format: biochemical
T7 construct: purchased Eurofins Cerep SA (KinaseProfiler)
Description: as §3

GRK2(h) = biological target: T8, GRK2(h) (Homo sapiens, UniProt P25098); assay: Kinase profiling; format: biochemical
T8 construct: purchased Eurofins Cerep SA (KinaseProfiler)
Description: as §3

GSK3α(h) = biological target: T9, GSK3α(h) (Homo sapiens, UniProt P49840); assay: Kinase profiling; format: biochemical
T9 construct: purchased Eurofins Cerep SA (KinaseProfiler)
Description: as §3

IKKα(h) = biological target: T10, IKKα(h) (Homo sapiens, UniProt O15111); assay: Kinase profiling; format: biochemical
T10 construct: purchased Eurofins Cerep SA (KinaseProfiler)
Description: as §3

IKKε(h) = biological target: T11, IKKε(h) (Homo sapiens, UniProt Q14164); assay: Kinase profiling; format: biochemical
T11 construct: purchased Eurofins Cerep SA (KinaseProfiler)
Description: as §3

MLK1(h) = biological target: T12, MLK1(h) (Homo sapiens, UniProt P80192); assay: Kinase profiling; format: biochemical
T12 construct: purchased Eurofins Cerep SA (KinaseProfiler)
Description: as §3

MLK2(h) = biological target: T13, MLK2(h) (Homo sapiens, UniProt Q02779); assay: Kinase profiling; format: biochemical
T13 construct: purchased Eurofins Cerep SA (KinaseProfiler)
Description: as §3

NDR1(h) = biological target: T14, NDR1(h) (Homo sapiens, UniProt Q15208); assay: Kinase profiling; format: biochemical
T14 construct: purchased Eurofins Cerep SA (KinaseProfiler)
Description: as §3

PIP5K1g(h) = biological target: T15, PIP5K1g(h) (Homo sapiens, UniProt O60331); assay: Kinase profiling; format: biochemical
T15 construct: purchased Eurofins Cerep SA (KinaseProfiler)
Description: as §3

PKCζ(h) = biological target: T16, PKCζ(h) (Homo sapiens, UniProt Q05513); assay: Kinase profiling; format: biochemical
T16 construct: purchased Eurofins Cerep SA (KinaseProfiler)
Description: as §3

PKCθ(h) = biological target: T17, PKCθ(h) (Homo sapiens, UniProt Q04759); assay: Kinase profiling; format: biochemical
T17 construct: purchased Eurofins Cerep SA (KinaseProfiler)
Description: as §3

Pim-2(h) = biological target: T18, Pim-2(h) (Homo sapiens, UniProt Q9P1W9); assay: Kinase profiling; format: biochemical
T18 construct: purchased Eurofins Cerep SA (KinaseProfiler)
Description: as §3

SIK(h) = biological target: T19, SIK(h) (Homo sapiens, UniProt P57059); assay: Kinase profiling; format: biochemical
T19 construct: purchased Eurofins Cerep SA (KinaseProfiler)
Description: as §3

SRPK1(h) = biological target: T20, SRPK1(h) (Homo sapiens, UniProt Q96SB4); assay: Kinase profiling; format: biochemical
T20 construct: purchased Eurofins Cerep SA (KinaseProfiler)
Description: as §3

TBK1(h) = biological target: T21, TBK1(h) (Homo sapiens, UniProt Q9UHD2); assay: Kinase profiling; format: biochemical
T21 construct: purchased Eurofins Cerep SA (KinaseProfiler)
Description: as §3

TrkB(h) = biological target: T22, TrkB(h) (Homo sapiens, UniProt Q16620); assay: Kinase profiling; format: biochemical
T22 construct: purchased Eurofins Cerep SA (KinaseProfiler)
Description: as §3

VRK1(h) = biological target: T23, VRK1(h) (Homo sapiens, UniProt Q99986); assay: Kinase profiling; format: biochemical
T23 construct: purchased Eurofins Cerep SA (KinaseProfiler)
Description: as §3

WNK4(h) = biological target: T24, WNK4(h) (Homo sapiens, UniProt Q96J92); assay: Kinase profiling; format: biochemical
T24 construct: purchased Eurofins Cerep SA (KinaseProfiler)
Description: as §3

p70S6K(h) = biological target: T25, p70S6K(h) (Homo sapiens, UniProt P23443); assay: Kinase profiling; format: biochemical
T25 construct: purchased Eurofins Cerep SA (KinaseProfiler)
Description: as §3

T12 sequence (P80192 whole entry): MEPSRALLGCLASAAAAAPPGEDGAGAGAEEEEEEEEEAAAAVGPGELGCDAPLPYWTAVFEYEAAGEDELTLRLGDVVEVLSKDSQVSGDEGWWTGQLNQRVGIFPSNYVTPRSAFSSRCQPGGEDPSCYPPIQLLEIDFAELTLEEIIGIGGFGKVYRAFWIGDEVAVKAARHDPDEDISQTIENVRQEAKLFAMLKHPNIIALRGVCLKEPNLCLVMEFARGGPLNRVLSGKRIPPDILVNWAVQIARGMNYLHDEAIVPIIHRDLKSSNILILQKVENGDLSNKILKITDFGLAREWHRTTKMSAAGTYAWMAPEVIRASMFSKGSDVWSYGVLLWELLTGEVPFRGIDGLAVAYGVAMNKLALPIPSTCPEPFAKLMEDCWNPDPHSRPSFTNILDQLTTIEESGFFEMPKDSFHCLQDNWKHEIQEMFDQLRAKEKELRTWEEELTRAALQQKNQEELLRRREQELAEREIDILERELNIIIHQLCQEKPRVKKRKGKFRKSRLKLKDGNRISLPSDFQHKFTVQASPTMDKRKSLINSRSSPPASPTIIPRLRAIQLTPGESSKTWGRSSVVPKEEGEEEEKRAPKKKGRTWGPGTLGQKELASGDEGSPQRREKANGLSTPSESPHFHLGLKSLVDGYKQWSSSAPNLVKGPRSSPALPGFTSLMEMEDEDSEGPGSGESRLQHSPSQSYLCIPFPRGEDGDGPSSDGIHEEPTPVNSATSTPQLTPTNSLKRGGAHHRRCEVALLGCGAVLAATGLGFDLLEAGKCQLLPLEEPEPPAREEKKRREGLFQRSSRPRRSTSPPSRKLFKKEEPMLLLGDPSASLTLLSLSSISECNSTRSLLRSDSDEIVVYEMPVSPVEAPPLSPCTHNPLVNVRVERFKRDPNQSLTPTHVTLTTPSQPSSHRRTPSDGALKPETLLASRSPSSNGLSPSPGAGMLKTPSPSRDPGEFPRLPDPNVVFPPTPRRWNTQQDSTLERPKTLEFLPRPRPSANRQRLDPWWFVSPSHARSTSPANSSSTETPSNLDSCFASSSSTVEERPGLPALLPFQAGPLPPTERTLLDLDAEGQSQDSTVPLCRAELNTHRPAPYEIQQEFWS
T14 sequence (Q15208 whole entry): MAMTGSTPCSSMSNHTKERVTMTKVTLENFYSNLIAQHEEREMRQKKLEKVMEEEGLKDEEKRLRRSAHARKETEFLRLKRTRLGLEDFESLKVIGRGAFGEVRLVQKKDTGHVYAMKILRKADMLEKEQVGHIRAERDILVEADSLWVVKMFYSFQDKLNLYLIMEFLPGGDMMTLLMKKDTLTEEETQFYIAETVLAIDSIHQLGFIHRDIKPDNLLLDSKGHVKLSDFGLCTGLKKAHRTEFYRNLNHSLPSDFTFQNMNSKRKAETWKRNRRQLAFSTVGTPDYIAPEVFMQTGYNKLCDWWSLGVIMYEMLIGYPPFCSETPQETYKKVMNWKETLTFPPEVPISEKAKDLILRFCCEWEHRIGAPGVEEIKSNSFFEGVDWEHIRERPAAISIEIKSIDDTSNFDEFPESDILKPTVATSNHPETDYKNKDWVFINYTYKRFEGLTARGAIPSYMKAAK
T21 sequence (Q9UHD2 whole entry): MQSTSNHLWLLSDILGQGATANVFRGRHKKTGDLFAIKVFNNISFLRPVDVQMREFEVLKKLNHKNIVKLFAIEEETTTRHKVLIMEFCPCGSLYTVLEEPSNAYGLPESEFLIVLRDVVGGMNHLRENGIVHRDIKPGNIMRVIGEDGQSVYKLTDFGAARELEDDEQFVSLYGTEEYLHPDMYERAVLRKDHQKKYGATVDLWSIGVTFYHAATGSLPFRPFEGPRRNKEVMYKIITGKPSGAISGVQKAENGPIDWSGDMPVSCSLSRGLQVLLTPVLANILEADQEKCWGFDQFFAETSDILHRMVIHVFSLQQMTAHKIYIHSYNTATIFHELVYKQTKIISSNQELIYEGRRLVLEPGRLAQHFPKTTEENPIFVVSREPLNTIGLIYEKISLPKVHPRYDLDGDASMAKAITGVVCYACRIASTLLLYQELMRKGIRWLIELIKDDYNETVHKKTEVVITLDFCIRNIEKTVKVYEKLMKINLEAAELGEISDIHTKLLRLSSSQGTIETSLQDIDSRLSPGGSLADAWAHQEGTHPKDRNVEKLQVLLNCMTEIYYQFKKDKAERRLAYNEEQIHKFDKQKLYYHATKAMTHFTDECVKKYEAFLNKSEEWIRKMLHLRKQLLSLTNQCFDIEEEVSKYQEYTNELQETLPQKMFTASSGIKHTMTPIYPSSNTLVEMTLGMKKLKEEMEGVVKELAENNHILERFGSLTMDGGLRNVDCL
T18 sequence (Q9P1W9 whole entry): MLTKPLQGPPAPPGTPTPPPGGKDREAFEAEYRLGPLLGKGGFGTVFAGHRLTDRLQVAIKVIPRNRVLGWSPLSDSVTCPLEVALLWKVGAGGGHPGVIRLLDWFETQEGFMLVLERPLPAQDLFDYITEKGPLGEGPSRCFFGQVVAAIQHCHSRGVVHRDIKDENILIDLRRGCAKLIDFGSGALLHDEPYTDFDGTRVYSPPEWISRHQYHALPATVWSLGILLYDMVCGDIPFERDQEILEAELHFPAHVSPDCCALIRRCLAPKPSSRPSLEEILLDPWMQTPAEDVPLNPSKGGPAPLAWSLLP
T6 sequence (P21802 22-821): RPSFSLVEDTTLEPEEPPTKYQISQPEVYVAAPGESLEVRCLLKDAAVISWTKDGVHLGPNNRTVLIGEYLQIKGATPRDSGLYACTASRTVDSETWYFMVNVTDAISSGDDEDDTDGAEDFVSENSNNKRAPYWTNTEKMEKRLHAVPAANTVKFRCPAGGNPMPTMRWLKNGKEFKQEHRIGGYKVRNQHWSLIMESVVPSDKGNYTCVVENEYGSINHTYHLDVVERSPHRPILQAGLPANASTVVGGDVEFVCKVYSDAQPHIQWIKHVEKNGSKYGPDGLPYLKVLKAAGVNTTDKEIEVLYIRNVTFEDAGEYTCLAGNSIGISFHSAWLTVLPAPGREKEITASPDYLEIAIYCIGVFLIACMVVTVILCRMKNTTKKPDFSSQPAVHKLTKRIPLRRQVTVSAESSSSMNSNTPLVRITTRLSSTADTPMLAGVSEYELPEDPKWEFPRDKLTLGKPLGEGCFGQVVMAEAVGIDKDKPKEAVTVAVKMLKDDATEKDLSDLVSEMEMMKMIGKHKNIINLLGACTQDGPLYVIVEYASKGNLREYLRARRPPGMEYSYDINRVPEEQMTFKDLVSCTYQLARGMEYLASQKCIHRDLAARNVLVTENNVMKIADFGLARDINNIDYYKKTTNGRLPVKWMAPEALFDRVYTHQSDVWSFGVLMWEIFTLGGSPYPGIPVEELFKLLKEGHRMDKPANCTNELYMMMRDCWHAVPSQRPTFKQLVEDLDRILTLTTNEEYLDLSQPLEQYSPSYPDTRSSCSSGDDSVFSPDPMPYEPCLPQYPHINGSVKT
T25 sequence (P23443 whole entry): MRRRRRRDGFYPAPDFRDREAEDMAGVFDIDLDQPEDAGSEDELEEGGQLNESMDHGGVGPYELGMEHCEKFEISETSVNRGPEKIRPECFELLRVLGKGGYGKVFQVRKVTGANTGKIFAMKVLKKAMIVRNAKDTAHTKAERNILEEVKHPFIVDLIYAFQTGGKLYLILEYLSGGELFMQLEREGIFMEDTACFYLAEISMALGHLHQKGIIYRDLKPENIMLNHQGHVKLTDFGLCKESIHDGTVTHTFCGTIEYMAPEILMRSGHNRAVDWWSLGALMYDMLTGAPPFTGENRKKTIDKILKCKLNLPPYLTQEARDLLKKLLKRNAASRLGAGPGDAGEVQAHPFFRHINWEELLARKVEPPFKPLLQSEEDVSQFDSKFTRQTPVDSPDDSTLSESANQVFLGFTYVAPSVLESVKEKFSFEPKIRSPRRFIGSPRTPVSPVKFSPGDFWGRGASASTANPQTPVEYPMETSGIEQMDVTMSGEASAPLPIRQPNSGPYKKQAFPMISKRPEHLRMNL
T23 sequence (Q99986 whole entry): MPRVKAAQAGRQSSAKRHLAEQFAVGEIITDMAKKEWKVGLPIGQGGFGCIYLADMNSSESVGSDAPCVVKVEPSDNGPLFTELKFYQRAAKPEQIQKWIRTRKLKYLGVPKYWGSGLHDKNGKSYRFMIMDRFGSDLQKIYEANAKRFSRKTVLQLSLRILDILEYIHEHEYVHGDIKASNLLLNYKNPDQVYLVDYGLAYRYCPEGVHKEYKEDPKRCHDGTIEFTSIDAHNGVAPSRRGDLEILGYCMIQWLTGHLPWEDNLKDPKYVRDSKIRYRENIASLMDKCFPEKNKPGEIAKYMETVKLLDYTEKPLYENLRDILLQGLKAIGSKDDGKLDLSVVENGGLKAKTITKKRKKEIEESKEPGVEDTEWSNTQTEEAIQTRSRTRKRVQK
T7 sequence (P06241 whole entry): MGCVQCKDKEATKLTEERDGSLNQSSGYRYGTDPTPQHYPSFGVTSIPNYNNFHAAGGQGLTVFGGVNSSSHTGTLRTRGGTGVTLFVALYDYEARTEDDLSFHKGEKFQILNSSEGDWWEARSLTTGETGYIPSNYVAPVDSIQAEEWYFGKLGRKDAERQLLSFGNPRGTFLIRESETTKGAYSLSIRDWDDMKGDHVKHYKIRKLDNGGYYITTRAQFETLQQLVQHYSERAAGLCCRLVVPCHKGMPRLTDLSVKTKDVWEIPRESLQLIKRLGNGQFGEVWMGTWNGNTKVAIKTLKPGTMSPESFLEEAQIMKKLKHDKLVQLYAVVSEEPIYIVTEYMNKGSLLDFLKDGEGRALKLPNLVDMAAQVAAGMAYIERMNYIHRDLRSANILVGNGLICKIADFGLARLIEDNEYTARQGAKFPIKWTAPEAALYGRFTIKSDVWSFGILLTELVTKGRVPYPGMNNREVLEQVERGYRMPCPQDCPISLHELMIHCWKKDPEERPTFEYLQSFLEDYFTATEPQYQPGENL

CN(C)Cc1cccc(Nc2ncc(Cl)c(-c3csc(C(=O)NN4CCOCC4)c3)n2)c1 [SKLB-D18, 4-(5-chloro-2-((3-((dimethylamino)methyl)phenyl)amino)pyrimidin-4-yl)-N-morpholinothiophene-2-carboxamide]
IC50 [1]: 14.8 µM
IC50 [2]: 19.8 µM
thermal shift of ERK5 and ERK1/2 proteins (CETSA) (ERK1/2 and ERK5): increasing thermal shift
changes in the activity of upstream MEK1/2 and MEK5 (MEK1/2 and MEK5): did not cause any changes
inhibition at 1 µM (Arg(h)): 43%
inhibition at 1 µM (Aurora-B(h)): 66%
inhibition at 1 µM (BrSK2(h)): 23%
inhibition at 1 µM (CaMKIIα(h)): -25%
inhibition at 1 µM (FAK(h)): 17%
inhibition at 1 µM (FGFR2(h)): 55%
inhibition at 1 µM (Fyn(h)): 60%
inhibition at 1 µM (GRK2(h)): 3%
inhibition at 1 µM (GSK3α(h)): 58%
inhibition at 1 µM (IKKα(h)): 34%
inhibition at 1 µM (IKKε(h)): 64%
inhibition at 1 µM (MLK1(h)): 61%
inhibition at 1 µM (MLK2(h)): 59%
inhibition at 1 µM (NDR1(h)): 66%
inhibition at 1 µM (PIP5K1g(h)): -4%
inhibition at 1 µM (PKCζ(h)): -15%
inhibition at 1 µM (PKCθ(h)): 7%
inhibition at 1 µM (Pim-2(h)): 26%
inhibition at 1 µM (SIK(h)): 26%
inhibition at 1 µM (SRPK1(h)): -2%
inhibition at 1 µM (TBK1(h)): 64%
inhibition at 1 µM (TrkB(h)): 46%
inhibition at 1 µM (VRK1(h)): 16%
inhibition at 1 µM (WNK4(h)): 18%
inhibition at 1 µM (p70S6K(h)): 57%
